# Results published in patent US11203753B2, “Hepcidin antagonists for use in the treatment of inflammation” (INSERM (INSTITUT NATIONAL DE LA SANTE ET DE LA RECHERCHE …, priority 2015, dated 2021).
# T1: Cxcr2 (Mus musculus, UniProt P35343)
# T1 construct: Migration of WT bone marrow isolated neutrophils in response to hepcidin (1 μg/ml); endogenous in cells; host or cells: primary neutrophils isolated from bone marrow of WT mice (mixed C57BL6/129SV background)
# T1 sequence (P35343 1-359): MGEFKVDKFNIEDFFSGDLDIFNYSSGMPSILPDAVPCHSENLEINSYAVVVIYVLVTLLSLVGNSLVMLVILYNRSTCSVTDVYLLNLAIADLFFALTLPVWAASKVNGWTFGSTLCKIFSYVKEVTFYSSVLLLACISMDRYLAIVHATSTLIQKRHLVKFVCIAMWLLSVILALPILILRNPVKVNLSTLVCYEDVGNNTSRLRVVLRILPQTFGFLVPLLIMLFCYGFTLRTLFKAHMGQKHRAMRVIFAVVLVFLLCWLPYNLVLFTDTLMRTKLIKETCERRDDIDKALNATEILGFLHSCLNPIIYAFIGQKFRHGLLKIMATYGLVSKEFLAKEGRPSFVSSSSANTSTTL
# B1: flagellin: FLA-ST from Salmonella Typhimirium, agonist of TLR5 (protein, UniProt P06179 2-495, looked up)
# Flagellin: AQVINTNSLSLLTQNNLNKSQSALGTAIERLSSGLRINSAKDDAAGQAIANRFTANIKGLTQASRNANDGISIAQTTEGALNEINNNLQRVRELAVQSANSTNSQSDLDSIQAEITQRLNEIDRVSGQTQFNGVKVLAQDNTLTIQVGANDGETIDIDLKQINSQTLGLDTLNVQQKYKVSDTAATVTGYADTTIALDNSTFKASATGLGGTDQKIDGDLKFDDTTGKYYAKVTVTGGTGKDGYYEVSVDKTNGEVTLAGGATSPLTGGLPATATEDVKNVQVANADLTEAKAALTAAGVTGTASVVKMSYTDNNGKTIDGGLAVKVGDDYYSATQNKDGSISINTTKYTADDGTSKTALNKLGGADGKTEVVSIGGKTYAASKAEGHNFKAQPDLAEAAATTTENPLQKIDAALAQVDTLRSDLGAVQNRFNSAITNLGNTVNNLTSARSRIEDSDYATEVSNMSRAQILQQAGTSVLAQANQVPQNVLSLLR
# Assays:
# [1] = test system: NF-kB pathway; assay: Hepcidin-induced expression of CXCL1 and TNF-α in macrophages with pathway inhibitors; assay type: cell-based, mouse
# Source text: Moreover, MyD88, a canonical adaptor for inflammatory signaling pathway, but not TLR4, was required for the hepcidin-triggered induction of CXCL1 and TNF-α. Indeed, macrophages isolated from TLR4−/− but not MyD88−/− mice were still able to mount an inflammatory response after addition of hepcidin.
# [2] = molecular target: T1, Cxcr2; assay: Neutrophil migration towards hepcidin in presence of Cxcr2 inhibitor; assay type: cell-based; details: hepcidin 1 μg/ml
# Procedure: Migration of WT bone marrow isolated neutrophils in response to hepcidin (1 μg/ml) in presence or not of the Cxcr2 inhibitor (sb225002, Sigma-Aldrich). n=3. mean+/−s.e.m.
# (§1) Neutrophil migration was assessed using transwell (3 μm; BD-Falcon) coated with 10 μg/ml fibronectin (# F1141, Sigma-Aldrich). The cells (5×10^5/well) were diluted in 700 μL DMEM+10% SVF and migration towards hepcidin (Peptide International) in the bottom well was allowed for 2 hours at 37° C. The resulting migrated cells recovered from the bottom well were counted using hemocytometer.
# [3] = test system: hepcidin expression; assay: Hepcidin expression (Q-PCR) in mouse intestine and liver 7 h after ip injection of TLR agonists; assay type: in vivo; details: WT mice
# Procedure: Mice were ip injected with LPS (from E. coli O111:B4; 2 mg/kg), Zymosan A (from Saccharomyces cerevisiae, Sigma-Aldrich Z4250; 250 mg/kg), Poly:IC (Polyinosinic-polycytidylic acid sodium salt, Sigma-Aldrich P0913; 12.5 mg/kg), Flagellin (FLA-ST from Salmonella Typhimirium, InvivoGen, #12B06-MM; 1.5 mg/kg) or with a sterile saline solution (PBS) and sacrificed 7 hours later.
# (§2) RNA extraction, reverse transcription, quantitative PCR and sequences of the primers used have been previously described^8. All samples were normalized to the threshold cycle value for cyclophilin-A.
# [4] = test system: WT bone marrow isolated neutrophils; assay: Neutrophil migration assay (transwell) towards hepcidin; assay type: cell-based, mouse
# Procedure: Bone marrows from WT mice were flushed from femurs and tibias with PBS using a 25 G needle. Tissues were homogenized through a 18 G needle and the suspension was passed through 70 μm and 40 μm cell strainers. Cells were centrifuged at 400 g for 10 min and resuspended in cold MACS buffer (PBS, BSA 0.5%, EDTA 2 mM, pH 7.4). After counting, cells were incubated on ice with FcBlock™ for 10 min, anti-Ly6C for 15 min and anti-biotin antibody microbeads for 15 min, following the manufacturer's instructions. Cells were washed with MACS buffer and centrifuged at 400 g for 10 min. Neutrophils were immuno-magnetically separated following filtration of the cell suspension through an LS column (Miltenyi) according to manufacturer's instructions.
# as §1
# [5] = test system: macrophages; assay: Inflammatory gene expression (Q-PCR) in macrophages incubated with hepcidin-25; assay type: cell-based, mouse
# Procedure: a, Flow cytometry analysis of neutrophils in lamina propria of WT and KO mice. Left: Representative experiment with Ly6G^+ Ly6C^low cells shown after gating on CD45^+CD11b^+ cells; Right: pool of four experiments (mean+/−s.e.m; *p<0.05). b, Migration of WT bone marrow isolated neutrophils in response to hepcidin-25. (3 experiments performed in triplicate; mean+/−s.e.m; *p<0.05). c, CXCL1, CXCL2, IL-1beta, iNOS mRNA levels in macrophages incubated for 1 or 3 hours with 1 μg/ml, 10 μg/ml Hepcidin-25 or PBS (control). d, Immunohistochemistry using anti-mouse iNOS antibody on intestine of WT and Hepc^Δint mice upon PBS or LPS injection.
# The gastrointestinal tract contains the largest reservoir of macrophages in the organism^17. Besides its proper chemoattractant property, the inventors hypothesized that hepcidin may influence the production of chemokines by the macrophages. Macrophages were incubated with hepcidin-25 at different time points (30 min, 1 h, 3 h, 24 h, 48 h).
# as §2
# [6] = test system: macrophages; assay: CXCL1 and TNF-α protein accumulation by macrophages following hepcidin treatment; assay type: cell-based, mouse; details: at 7 hours
# Procedure: Kinetic response of macrophage-derived CXCL1 and TNF-α following hepcidin treatment was further determined. […] Massive protein accumulation of CXCL1 and TNF-α reached respectively 300 and 150 pg/ml at 7 hours (Data not shown). Hepcidin stimulated IL-1beta, IL-6 and iNOS expression with a maximal induction at 3 hours with 10 μg/ml hepcidin (FIG. 2c) while the peak of TNF-alpha and Cox-2 expression occurred after 1 hour of hepcidin treatment. AMPs, such as LL37, typically function in this high concentration range^18,19 to induce proinflammatory molecules^20,21. This allows the production of inflammatory mediators in pathological conditions where AMPs concentrations can reach high values^18,19 and not in healthy tissues where inflammatory damage might otherwise harm host cells.
# [7] = test system: Caco-2 intestinal cell line; assay: Addition of synthetic mature hepcidin to Caco-2 intestinal cell line; assay type: cell-based; details: basolateral or apical side
# [8] = test system: Raw 264.7 (ATCC TIB-71) murine macrophage cell line; assay: CXCL2 and TNF-α expression (Q-PCR) in serum starved Raw 264.7 macrophages with Hepc-25; assay type: cell-based
# Procedure: FIG. 9: Serum starvation enhances the proinflammatory action of Hepc-25 in macrophages. Expression by Q-PCR of CXCL2 and TNF-α in Raw 264.7 (ATCC® TIB-71™) murine macrophage cell line serum starved or not for 1 hour before the addition of 10 μg/ml of Hepc-25 (Peptide International) for an additional hour. N=3 per group; mean+/−s.e.m. Statistical analysis by a two-way analysis of variance (ANOVA) followed by a Bonferroni posttest. **p<0.01; ***p<0.001.
# Expression by Q-PCR of CXCL2 in Raw 264.7 (ATCC® TIB-71™) murine macrophage cell line serum starved for 1 hour or not before the addition of 1 or 10 μg/ml of Hepc-25 (Peptide International) for an additional hour. N=3 per group; mean+/−s.e.m. Statistical analysis by a two-way analysis of variance (ANOVA) followed by a Bonferroni posttest. **p<0.01; ****p<0.0001.
molecule,measurement,setting,value
Cc1ccc(S(=O)(=O)/C=C/C#N)cc1 [BAY 7082],hepcidin-induced expression of CXCL1 and TNF-α,[1],strongly blunted
CC(C)(C)c1ccc(S(=O)(=O)/C=C/C#N)cc1 [BAY 7085],hepcidin-induced expression of CXCL1 and TNF-α,[1],strongly blunted
O=C(Nc1ccc([N+](=O)[O-])cc1O)Nc1ccccc1Br [sb225002],neutrophil migration towards hepcidin,[2],prevents neutrophil migration
Polyinosinic-polycytidylic acid sodium salt [poly:IC],hepcidin expression in the intestine,[3],induced
hepcidin: synthetic mature 25 amino acid hepcidin peptide (Peptide International),migration of neutrophils,[4]; bimodal dose response,induced a dose-dependent migration of neutrophils
same,dose of peak response of neutrophil migration,[4]; migration 2 hours at 37° C.,0.1 µg/mL
same,expression of the iron-responsive gene TfR1,[5],unchanged
same,time of peak of TNF-alpha and Cox-2 expression,[5],1 h
same,time of peak of transient CXCL1 and TNF-α mRNA induction,[5],1 h
same,expression of CXCL-1 and CXCL2,"[5]; 1 μg/ml hepcidin, 1 hour",slightly increased
same,"time of maximal induction of IL-1beta, IL-6 and iNOS expression",[5]; 10 μg/ml hepcidin,3 h
same,expression of CXCL-1 and CXCL2,"[5]; 10 μg/ml hepcidin, 1 hour",maximally induced
same,"fold change of genes statistically induced (TNF-α, CXCL1, CXCL2, NF-kappa-B inhibitor zeta, Mir-146)",[5]; 1 hour,> 2
same,CXCL1 protein accumulation,[6],300 pg/mL
same,TNF-α protein accumulation,[6],150 pg/mL
same,iNOS expression,[7],did not induce
same,expression of Cxcl2,"[8]; 1 μg/ml, serum starvation 1 hour, 1 additional hour",robust expression
same,stimulatory effect on macrophage-mediated cytokine release,[8]; serum-free conditions versus not starved,clearly enhanced
B1,hepcidin expression in the intestine,[3],induced
